# Source: US20240109936A1, “NOVEL M[…] PEPTIDES” (University of Florida Research Foundation, Incorporated, priority 2020, published 2024)
# Where a SMILES comes first, the peptide text is derived from it.
# Key:
# κ opioid receptor = target: T1, κ opioid receptor (Mus musculus, UniProt P33534); conditions: non-peptide KOR antagonists; cited from earlier work
# T1 construct: host or cells: living animal (CNS), endogenous receptor
# mice [1] = test: Naloxone precipitated withdrawal (jumping behavior) in morphine-treated mice; type: in vivo, mouse; conditions: five days of morphine injections; 30 mg/kg, p.o. 1 hour prior to naloxone (10 mg/kg, s.c.); FIG. 35
# Method: For naloxone precipitated withdrawal or 2-bottle choice (TBC) assay testing are conducted essentially as described for example in Wilson L L, Harris H M, Brice-Tutt A C, Cirino T J, Eans S O, Stacy H M, Simons C A, Sharma A, Leon J F, Boyer E W, Avery B A, McLaughlin J P, McCurdy C M: Lyophilized Kratom tea as a therapeutic option for opioid dependence. Drug and Alcohol Dependence, 216:108310-108318, 2020. https://doi.org/10.1016/j.drugalcdep.2020.108310; and as follows;
# mice [2] = conditions: 3930 alone; place conditioning daily for 2 days; FIG. 33
# Method: For conditioned place preference assay/reinstatement testing are conducted essentially as described for example in Brice-Tutt A C, Wilson L L, Eans S O, Stacy H M, Simons C A, Simpson G G, Coleman J S, Ferracane M J, Aldrich J V, McLaughlin J P: Multifunctional opioid receptor agonism and antagonism by a novel macrocyclic tetrapeptide prevents reinstatement of morphine-seeking behavior. British Journal of Pharmacology, 177(18):4209-4222, 2020. doi: 10.1111/bph.15165.
# mice [3] = test: Reinstatement of extinguished morphine conditioned place preference (forced swim stress- or morphine-induced); type: in vivo, mouse; conditions: 30 mg/kg, p.o., FIG. 34
# mice [4] = test: Forced swim stress-induced increase in morphine consumption, two-bottle choice assay; type: in vivo, mouse; conditions: orally administered, FIG. 13
# T1 sequence (P33534 whole entry): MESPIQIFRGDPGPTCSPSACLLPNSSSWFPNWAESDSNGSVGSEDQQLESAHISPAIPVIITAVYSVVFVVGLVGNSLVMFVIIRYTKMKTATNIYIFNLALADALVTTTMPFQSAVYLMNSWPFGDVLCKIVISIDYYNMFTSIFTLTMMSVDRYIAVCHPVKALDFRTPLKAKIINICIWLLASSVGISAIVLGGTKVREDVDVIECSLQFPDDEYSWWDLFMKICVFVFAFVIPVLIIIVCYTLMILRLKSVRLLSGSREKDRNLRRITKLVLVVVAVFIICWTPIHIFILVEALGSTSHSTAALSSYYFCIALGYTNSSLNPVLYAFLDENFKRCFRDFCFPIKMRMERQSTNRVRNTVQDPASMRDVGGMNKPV
smiles,measurement,setting,value
N=C(N)Nc1ccc2[nH]c3c(c2c1)C[C@@]1(O)[C@H]2Cc4ccc(O)c5c4[C@@]1(CCN2CC1CC1)[C@H]3O5 [5-guanidinylnaltrindole],duration of antagonism,κ opioid receptor,unusually long duration of antagonism
CC(C)[C@@H](CN1CC[C@@](C)(c2cccc(O)c2)[C@@H](C)C1)NC(=O)[C@H]1Cc2ccc(O)cc2CN1 [JDTic],duration of antagonism,κ opioid receptor,unusually long duration of antagonism
"O=C1N[C@H](Cc2ccccc2C(F)(F)F)C(=O)N[C@@H](Cc2ccccc2)C(=O)N2CCC[C@@H]2C(=O)N[C@H]1Cc1ccccc1 [compound 3930, cyclo[Phe-D-Pro-Phe-D-Phe(2-CF3)]] (HELM PEPTIDE1{F.[dP].F.[O=C([C@@H](Cc1ccccc1C(F)(F)F)N[*:1])[*:2]]}$PEPTIDE1,PEPTIDE1,1:R1-4:R2$$$V2.0)",frequency of jumping behavior following administration of naloxone,mice [1],significantly reduced instances of jumping behavior
same,conditioned place preference or aversion,mice [2],did not produce conditioned place preference or aversion
same,"stress- (forced swim stress, FSS) induced reinstatement of extinguished morphine-CPP",mice [3]; administered 5 min or 2.5 hr prior to FSS exposure,prevented stress-induced reinstatement of place preference
same,drug-seeking behavior after an additional round of morphine-place conditioning,mice [3]; administered 5 min prior to additional round of morphine-place conditioning,no significant effect on drug-seeking behavior
same,stress-induced increase in consumption of a morphine solution,mice [4],can prevent a stress-induced increase in consumption of a morphine solution
Oc1ccc2c3c1O[C@H]1c4[nH]c5c(c4C[C@@]4(O)[C@@H](C2)N(CC2CC2)CC[C@]314)C[C@@]1(O)[C@H]2Cc3ccc(O)c4c3[C@@]1(CCN2CC1CC1)[C@H]5O4 [nor-binaltorphimine],duration of antagonism,κ opioid receptor,unusually long duration of antagonism
